According to US6943147B2, “Cancer treatment using proANP peptides” (University of South Florida, priority 2003, dated 2005):

System: pancreatic adenocarcinoma cell line, ATCC number CRL-2119
Assay: Number of pancreatic adenocarcinoma cells in culture, counted by microscope
Format: cell-based, human
Text: The pancreatic adenocarcinoma cell line, ATCC number CRL-2119, was derived in 1985 from a nude mouse xenograft of a primary tumor removed from the head of the pancreas. It is a moderate to well-differentiated pancreatic adenocarcinoma of ductal origin. These pancreatic adenocarcinoma cells are stimulated to proliferate in culture by insulin, insulin-like growth factor I (IGF-I), epidermal growth factor (EGF), and transforming growth factor alpha (TGF alpha). These adenocarcinoma cells contain significant concentrations of tumor-associated antigens CEA, CA 125, and CA 19-9. In culture, these adenocarcinoma cells form monolayers of morphologically heterogeneous polar epithelial cells. These cells are tumorgenic in that they form tumors in athymic nude mice at the site of inoculation that are histologically similar to the tumor of origin.
Propagation of these cells was in Dulbecco's modified Eagle's plus Ham's F12-A 1:1 mixture of Dulbecco's modified Eagle's medium and Ham's F12 medium containing 1.2 g/L of sodium bicarbonate (Sigma Chemical Co., St. Louis, Mo.) supplemented with 15 mM HEPES and fetal bovine serum, 10%, at a temperature of 37° C. as recommended by the ATCC.
These pancreatic adenocarcinoma cells were subcultured (passaged) by removing spent (i.e., old) medium by aspiration, and then adding calcium and magnesium free Hank's Balanced Salt Solution with 0.25% trypsin and 0.03% ethylenediaminetetracetic acid (EDTA). The culture was allowed to sit at room temperature for 2 to 5 minutes. Fresh medium was added to the adenocarcinoma cells which were dispensed into new flasks, with subculture every 6 to 8 days. The growth medium was changed every three days.
After these adenocarcinoma cells were subcultured for 24 hours, they were then seeded to coverslips and transferred to 24 microwell plates (NUCOLON, Roskilde Denmark), with 1 ml Dulbeco Modified Eagle's (DME)/[…] nutrient culture media (Sigma Chemical Co.) with 10% fetal bovine serum (Atlanta Biologicals, Norcross, Ga.). After 24 hours, wells were washed twice with Dulbecco's Modified Eagle's/Ham's F12 with 0.1% bovine serum albumin (Sigma-Aldrich, St. Louis, Mo.) and allowed to incubate in this serum free medium for an additional 24 hour period of serum deprivation. Serum-free media was utilized to remove all variables (EGF, etc.) present in serum in order that interpretation of any data obtained would be straightforward. After 24 hours of serum deprivation, media volume was reduced to 250 μL per well with or without the respective peptide hormones at their 1 μM concentrations (1% of this volume). The adenocarcinoma cells were then incubated for various periods of time (24, 48, 72, and 96 hours).At the end of the above time periods, hematoxylin was added for 5 minutes to make the cells more visible for counting, and then they were washed for 5 minutes. The coverslips were then placed face down on microscope slides with the addition of 6 μl of histologic grade phosphate buffered saline (PBS)/I-glycine that had been filtered immediately before use with a 0.22 μm polyethersulfone, nonpyrogenic, sterile, low protein binding membrane (Corning 43117, Corning Inc., Corning, N.Y.). The number of adenocarcinoma cells were then counted with a cell counter evaluating ten fields of the microscope slide at 40× along the X-axis with an Olympus BH-2 microscope (Atlanta, Ga.). This evaluation was repeated on six separate occasions with the number of adenocarcinoma cells reflecting 60 observations for each group, i.e., 60 observations for controls and 60 observations for each of the four groups with respective peptide hormones. The only variable in this investigation was whether one of the four peptide hormones was added to the pancreatic adenocarcinoma cells. Otherwise all the adenocarcinoma cells were treated the same, i.e., with same culture medium, time of incubation, and processing of cells for the various investigations. […]

vessel dilator: a.a. 31-67 of the 126 a.a. ANP prohormone; peptide hormone from Peninsula Laboratories
decrease in the number of adenocarcinoma cells (1 μM, 24 hours, vs untreated cells): 65%
number of adenocarcinoma cells (1 μM, 24 hours, untreated 183.4+/−8): 63.8+/−4 cells per high powered field
number of cancer cells compared to controls (1 μM, 48 hours): 68%
decrease in the number of adenocarcinoma cells (1 μM, 72 hours, vs untreated cells): 70%
decrease in the number of adenocarcinoma cells (1 μM, 96 hours, vs untreated cells): 70%
decrease in the number of adenocarcinoma cells (time not stated): 70%
